target: GABA-A receptor; anion channel; assay: Binding affinity to the benzodiazepine receptor assayed using 0.5 nM [3H]flunitrazapam as radioligand in guinea pig cerebellum; type: tissue-based, Cavia porcellus; details: not given

Structure (SMILES) | IC50
Cc1ccnc2c1ncn2-c1ccc2[nH]cc(C[C@H]3CCCN3C)c2c1 | 12 nM
N#Cc1ccc2c(c1)ncn2-c1ccc2[nH]cc(C=O)c2c1 | 19 nM
CN1CCC[C@@H]1Cc1c[nH]c2ccc(-n3cnc4cc(C#N)ccc43)cc12 | 2.8 nM
CN1CCC(c2c[nH]c3ccc(-n4cnc5cc(C#N)ccc54)cc23)C1 (centres undefined) | 2.2 nM
CN1CCC[C@@H]1Cc1c[nH]c2ccc(-n3cnc4cc(Cl)ccc43)cc12 | 1.1 nM
CN1CCC[C@@H]1Cc1c[nH]c2ccc(-n3cnc4cc(NC(Cc5c[nH]c6ccccc56)C(=O)NC(=O)OCc5ccccc5)ccc43)cc12 (some centres undefined) | 33 nM
c1cnc2c(c1)ncn2-c1ccc2[nH]cc(C[C@H]3CCCN3)c2c1 | 110 nM
COCCN1CCC(c2c[nH]c3ccc(-n4cnc5cc(C#N)ccc54)cc23)CC1 | 0.6 nM
COCCN1CCC[C@@H]1Cc1c[nH]c2ccc(-n3cnc4cc(NC(=O)Nc5ccccc5)ccc43)cc12 | 17 nM
Cc1ccc2c(c1)ncn2-c1ccc2[nH]cc(C3CCNCC3)c2c1 | 0.49 nM
CN1CCC[C@@H]1Cc1c[nH]c2ccc(Nc3ncccc3[N+](=O)[O-])cc12 | 9600 nM
N#Cc1ccc2c(c1)ncn2-c1ccc2[nH]cc(C3=CCNCC3)c2c1 | 0.46 nM
Cc1ccc2c(c1)ncn2-c1ccc2[nH]ccc2c1 | 0.79 nM
Cc1ccc2c(c1)ncn2-c1ccc2[nH]cc(C[C@H]3CCCN3C)c2c1 | 0.16 nM
O=Cc1c[nH]c2ccc(-n3cnc4cccnc43)cc12 | 209 nM
Cc1ccc2c(c1)ncn2-c1ccc2[nH]cc(C3=CCN(C(=O)OC(C)(C)C)CC3)c2c1 | 31 nM
CN1CCC[C@@H]1Cc1c[nH]c2ccc(-n3cnc4cc(CN)ccc43)cc12 | 13 nM
CN1CCC[C@@H]1Cc1c[nH]c2ccc(-n3cnc4cc(C#N)cnc43)cc12 | 9.8 nM
CN1CCC[C@@H]1Cc1c[nH]c2ccc(-n3cnc4cccnc43)cc12 | 27 nM
N#Cc1ccc2c(c1)ncn2-c1ccc2[nH]ccc2c1 | 18 nM
N#Cc1ccc2c(c1)ncn2-c1ccc2[nH]cc(C3CCNCC3)c2c1 | 0.24 nM
CN1CCC[C@@H]1Cc1c[nH]c2ccc(-n3cnc4ccccc43)cc12 | 16 nM
CN1CCC[C@@H]1Cc1c[nH]c2ccc(-n3ccc4cc(C#N)ccc43)cc12 | > 1000 nM
CN1CCC[C@H]1Cc1c[nH]c2ccc(-n3cnc4cc(C#N)ccc43)cc12 | 1.8 nM
COCCN1CCC[C@@H]1Cc1c[nH]c2ccc(-n3cnc4cc(C#N)ccc43)cc12 | 24 nM
COCCN1CCC[C@@H]1Cc1c[nH]c2ccc(-n3cnc4cc(CN)ccc43)cc12 | 55 nM

target: GABA-A receptor; anion channel; assay: Displacement of [3H]flunitrazapam from GABA-A central benzodiazepine receptor of guinea pig cerebellum; type: tissue-based, Cavia porcellus; details: not given

IC50 | Structure (SMILES)
27 nM | N#Cc1ccc2c(c1)ncn2-c1ccc2[nH]cc(C[C@H]3CCCN3CC3CC3)c2c1

target: GABA-A receptor; anion channel (Homo sapiens) (UniProt P14867+P47870+P18507+P28472+P48169+Q99928+Q9UN88+P34903+O00591+O14764+Q8N1C3+P18505+P78334+P47869+P31644+Q16445); assay: Inhibition of [3H]flunitrazapam binding to GABA-A central benzodiazepine receptor of guinea pig cerebellum at 10 uM; type: tissue-based; details: Cavia porcellus, target entry is the homologue from another species

Structure (SMILES) | inhibition
CN1CCC(c2c[nH]c3ccc(-n4ccc5cc(C#N)ccc54)cc23)C1 (centres undefined) | 34%
CN1CCC[C@@H]1Cc1c[nH]c2ccc(-n3ccc4cc(C#N)ccc43)cc12 | 37%

Reference: ChEMBL document CHEMBL1128050, “The discovery of a novel and potent benzodiazepine receptor pharmacophore” (Bioorg Med Chem Lett, 1995)
